Reference: patent US20130131002A1, “COMPOSITIONS AND METHODS FOR TREATING PULMONARY HYPERTENSION” (Georgetown University, priority 2010, published 2013)
Entries after “also recorded” stand apart in the source; their conditions may differ.

Experiments:
Type in all cases: in vivo, Sprague Dawley rats
[1] = tested on: normal animals without pulmonary hypertension; assay: Pulmonary vascular wall thickness (H&E stained lungs) in normoxia control rats
Excerpt: (§1) All animal studies were approved by the Georgetown University Animal Care and Use Committee. Adult Sprague Dawley rats (200-250 g) were placed in specialized cages connected to the OxyCycler Oxygen Profile Controller (BioSpherix, Redfield, N.Y.) which precisely controls the oxygen and nitrogen contents. Animals were subjected to hypoxic gas (10% O2, balance N2). […] Normoxia control animals are subjected to the same conditions except that they were exposed to ambient O2. All animals were fed normal rat chow during treatment and used in accordance with institutional guidelines.
(§2) After 2-weeks of hypoxia or normoxia treatment, animals were injected intraperitoneally with saline or daunorubicin (20 mg/kg body weight; Sigma-Aldrich, St. Louise, Mo.). After injection, animals were placed back in hypoxia or normoxia condition for 3 days.
(§3) As an indication of the development of pulmonary hypertension, right ventricular hypertrophy was estimated by calculating RV/(LV+S), where RV is the mass of right ventricle, LV is the mass of left ventricle and S is the mass of septum. Right ventricular pressure was measured by inserting a 1.4 F Millar Catheter into the right ventricle at the base of apex using PowerLab 8/30 High Performance Data Acquisition System with Chart Pro in anesthetized and ventilated animals. Pulmonary arterial wall thickening was assessed histologically in hematoxylin and eosin stained lungs. Apoptosis of pulmonary vascular cells was monitored using terminal deoxynucleotidyl transferase dUTP nick end labeling (TUNEL) method.
(§4) Comparisons between the 2 groups were analyzed using a two-tailed Student's t test, and comparisons between 3 or more groups were analyzed by ANOVA with a Student-Newman-Keuls post-hoc test. p<0.05 was considered to be significant. […]
(§5) Comparisons between the 2 groups (2 mg/kg vs. control, or 5 mg/kg vs. control) were analyzed using a two-tailed Student's t test, and comparisons between 3 or more groups were analyzed by ANOVA with a Student-Newman-Keuls post-hoc test. p<0.05 was considered to be significant.

[2] = tested on: rats with hypoxia-induced pulmonary hypertension; assay: Pulmonary arterial wall thickening assessed histologically (H&E stained lungs) in chronic hypoxia rats; settings: vs saline
Excerpt: as §1, §2, §3, §4, §5

[3] = Overall body weight of treated animals; settings: lower doses of daunorubicin (2 mg/kg and 5 mg/kg i.p.)
[4] = tested on: pulmonary artery smooth muscle cells; assay: Apoptosis of pulmonary vascular cells by TUNEL method in lungs of treated rats; settings: daunorubicin 20 mg/kg i.p.
Excerpt: as §1, with “guidelines. […]” for “guidelines.”
as §3

## COc1cccc2c1C(=O)c1c(O)c3c(c(O)c1C2=O)C[C@@](O)(C(C)=O)C[C@@H]3O[C@H]1C[C@H](N)[C@H](O)[C@H](C)O1 [daunorubicin]
[1]; daunorubicin 2 mg/kg i.p.
  thickness of the vascular walls in normal animals: did not affect the thickness of the vascular walls
[1]; daunorubicin 5 mg/kg i.p.
  thickness of the vascular walls in normal animals: did not affect the thickness of the vascular walls
[1]; daunorubicin 20 mg/kg i.p.
  thickness of the vascular walls in normal animals: did not affect the thickness of the vascular walls
[2]; daunorubicin 2 mg/kg i.p. after 2 weeks hypoxia
  hypoxia-induced pulmonary vascular wall thickening: significantly reducing hypoxia-induced wall thickening; also recorded: significantly reduced hypoxia-induced wall thickening
[2]; daunorubicin 5 mg/kg i.p. after 2 weeks hypoxia
  hypoxia-induced pulmonary vascular wall thickening: significantly reducing hypoxia-induced wall thickening; also recorded: significantly reduced hypoxia-induced wall thickening
[2]; daunorubicin 20 mg/kg i.p. after 2 weeks 10% O2 hypoxia, then 3 more days hypoxia, P<0.05
  hypoxia-induced pulmonary vascular wall thickening: reduced thickening of pulmonary vascular walls; also recorded: significantly reduced this hypoxia-induced wall thickening
[3]
  overall body weight of the animals: not significantly affecting the overall body weight; also recorded: do not significantly impact the overall body weight
[4]; hypoxia-exposed rats, saline controls showed none
  TUNEL-positive (apoptotic) cells in pulmonary vascular walls: induction of apoptosis in pulmonary vascular walls; also recorded: presented TUNEL-positive cells
[4]; hypoxia rats (FIG. 3A) vs normoxia rats (FIG. 3B)
  selectivity of apoptosis induction: thickened vs normal pulmonary vessels: can selectively kill pulmonary artery smooth muscle cells involved in thickened vascular walls
